# Experimental data taken from patent US20130281399A1, “TREATMENT OF DISEASES BY EPIGENETIC REGULATION” (RVX Therapeutics Inc., priority 2012, published 2013).
# Columns and labels:
# IL-6 = settings: cited from earlier work
# [1] = murine model; Lamotte et al. (2012); cited from earlier work
# Brd4 bromodomain 1 = biological target: T1, Brd4 bromodomain 1 (Homo sapiens, UniProt O60885); test: Inhibition of binding of tetra-acetylated histone H4 to Brd4 bromodomain 1 (TR-FRET); settings: His-tagged Brd4 bromodomain 1 200 nM, tetra-acetylated histone H4 peptide 25-50 nM, 2 hours room temperature
# T1 construct: made in house; host or cells: E. coli BL21(DE3)
# In short: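 His-tagged Brd4 BD1 was expressed in E. coli and purified by Ni affinity and size exclusion. TR-FRET competition with tetra-acetylated H4 was run in 30 mM HEPES pH 7.4, 30 mM NaCl, 0.3 mM CHAPS, 20 mM phosphate pH 7.0, 320 mM KF and 0.08% BSA, with 0.2% DMSO.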
# c-myc = test: Inhibition of c-myc expression in MV4-11 cells (real-time PCR of mRNA); assay type: cell-based, Human; set-up: key: Active: Compounds with an IC50 value less than 30 uM were deemed to be active; settings: 3 hours at 37° C.
# Procedure: MV4-11 cells (2.5×10^4 cells) were plated in 96 well U-bottom plates with test compound or DMSO (0.1%), and incubated for 3 hours at 37° C. Cells were then harvested by centrifugation, lysed, and mRNA was isolated using the mRNA catcher plus kit (Invitrogen). Reverse transcription of the mRNA and duplex amplification of the c-myc and cyclophilin cDNAs was performed using the RNA Ultrasense kit (Invitrogen) and a ViiA7 real-time PCR machine (Applied Biosystems). IC50 values were determined from a dose response curve.
# Human AML MV-4-11 cells = test: Inhibition of cell proliferation in human AML MV-4-11 cells (CellTiter Aqueous One); assay type: cell-based; set-up: key: Active: Compounds with an IC50 value less than 30 μM were deemed to be active; settings: 72 hours, 30 μM to 0.2 μM
# Procedure: MV4-11 cells: 96-well plates were seeded with 5×10^4 cells per well of exponentially growing human AML MV-4-11 (CRL-9591) cells and immediately treated with two-fold dilutions of test compounds, ranging from 30 μM to 0.2 μM. Triplicate wells were used for each concentration, as well as a media only and three DMSO control wells. The cells and compounds were incubated at 37° C., 5% CO2 for 72 hours before adding 20 μL of the CellTiter Aqueous One Solution (Promega) to each well and incubated at 37° C., 5% CO2 for an additional 3-4 hours. The absorbance was taken at 490 nm in a spectrophotometer and the percentage of proliferation relative to DMSO-treated cells was calculated after correction from the blank well. IC50 were calculated using the GraphPad Prism software.
# [2] = system: NUT (nuclear protein in testis) midline carcinoma (NMC); settings: Filippakopoulos et al. (2010); cited from earlier work
# multiple myeloma = settings: associated with cell cycle arrest and cellular senescence; Delmore et al. (2011); cited from earlier work
SMILES,FRET activity (<50 uM) (Brd4 bromodomain 1),melting point [°C],IL-6 expression in vivo (IL-6),c-myc activity (<30 uM) (c-myc),cell proliferation activity (<30 uM) (Human AML MV-4-11 cells),also measured
COc1cc2c(cc1-c1c(C)noc1C)ncc1[nH]c(=O)n([C@H](C)c3ccccn3)c12 [I-BET151],,,decrease IL-6 expression,,,bacterial-induced inflammation and sepsis [1]: suppress bacterial-induced inflammation and sepsis
Cc1sc2c(c1C)C(c1ccc(Cl)cc1)=N[C@@H](CC(=O)OC(C)(C)C)c1nnc(C)n1-2 [JQ1],,,,,,antitumor activity in murine xenograft models of NMC [2]: potent antitumor activity; antiproliferation in multiple myeloma (multiple myeloma): potent antiproliferator
CCNC(=O)C[C@@H]1N=C(c2ccc(Cl)cc2)c2cc(OC)ccc2-n2c(C)nnc21 [I-BET],,,decrease IL-6 expression,,,

# Continued, in another order:
FRET activity (<50 uM) (Brd4 bromodomain 1),melting point [°C],SMILES,IL-6 expression in vivo (IL-6),c-myc activity (<30 uM) (c-myc),cell proliferation activity (<30 uM) (Human AML MV-4-11 cells),also measured
Active,159 to 160,"COc1cc(OCCN2CCCC2)cc(-c2nc3cc(OC)cc(OC)c3c(=O)[nH]2)c1 [Example 114, 5,7-Dimethoxy-2-(3-methoxy-5-(2-(pyrrolidin-1-yl)ethoxy)phenyl)quinazolin-4(3H)-one]",,Active,Active,
Inactive,264 to 265,"COc1cc(OCCNC(C)=O)cc(-c2nc3cc(OC)cc(OC)c3c(=O)[nH]2)c1 [Example 115, N-(2-(3-(5,7-dimethoxy-4-oxo-3,4-dihydroquinazolin-2-yl)-5-methoxyphenoxy)ethyl)acetamide]",,Inactive,Active,
Active,,"COc1cc(OC)c2c(=O)[nH]c(-c3ccc(N4CCN(C(C)C)CC4)cc3)nc2c1 [Example 10, 2-(4-(4-Isopropylpiperazin-1-yl)phenyl)-5,7-dimethoxyquinazolin-4(3H)-one]",,Active,Inactive,
